We go through 19 compounds from patent US8455534B2, “Estrogen receptor modulators and uses thereof” (Aragon Pharmaceuticals, Inc., priority 2010, dated 2013).

One experiment has as its system MCF-7 cells. Briefly: Breast Cancer Cell Viability Assay (MCF-7, CellTiter-Glo). It is filed as cell-based. Conditions: 5 days' compound exposure; for IC50: Homo sapiens, MCF7, 120 h. An outline of the steps:
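MCF-7 cells, 320 per well in RPMI with 10% FBS and 20 mM HEPES, adhered overnight, then exposed 5 days to an eleven-point semilog dilution (final 0.3-0.000003 μM). CellTiter-Glo luminescence read; % viability = (sample − cell-free background)/(untreated − background) × 100.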
For orientation: Cellular ATP, detected with luciferase, serves as a proxy for viable cell number.

The target in the next experiment is T1, ER-α (Homo sapiens, UniProt P03372).
T1 sequence (P03372 1-595): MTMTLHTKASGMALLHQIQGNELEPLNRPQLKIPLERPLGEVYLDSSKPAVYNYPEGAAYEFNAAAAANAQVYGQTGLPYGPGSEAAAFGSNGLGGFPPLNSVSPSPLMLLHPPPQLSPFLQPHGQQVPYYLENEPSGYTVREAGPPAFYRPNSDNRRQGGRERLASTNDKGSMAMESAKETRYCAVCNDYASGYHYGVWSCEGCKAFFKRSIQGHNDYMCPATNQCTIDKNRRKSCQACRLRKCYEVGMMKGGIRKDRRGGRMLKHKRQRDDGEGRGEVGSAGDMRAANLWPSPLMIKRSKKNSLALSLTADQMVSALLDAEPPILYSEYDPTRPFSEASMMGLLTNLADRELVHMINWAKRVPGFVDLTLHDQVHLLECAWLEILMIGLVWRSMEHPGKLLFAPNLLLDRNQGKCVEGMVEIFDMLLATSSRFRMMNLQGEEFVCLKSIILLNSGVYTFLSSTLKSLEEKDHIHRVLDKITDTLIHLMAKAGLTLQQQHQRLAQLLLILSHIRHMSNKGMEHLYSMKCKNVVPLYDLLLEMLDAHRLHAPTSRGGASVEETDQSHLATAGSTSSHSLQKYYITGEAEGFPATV
Description: Breast Cancer Cell ER-α In Cell Western Assay (SP1). Particulars: MCF-7 cells, SP1 antibody, 4 or 24 hr post compound addition; for Emax: MCF7, read-out: ER-α In Cell Western Assay (SP1) Max Response; for DC50: read-out: ER-α In Cell Western Assay (SP1) IC50. It is filed as cell-based. The procedure, abridged: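 ER-α protein levels measured by in-cell western with SP1 antibody, ratioed to DRAQ5 DNA signal and given as percent of untreated controls. Compounds added at 0.3–0.000003 μM final (eleven semilog points) to adherent MCF-7 cells in stripped serum; exposure 4 or 24 h before fixation.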

Each structure is given as a SMILES string.

Regarding `CC/C(=C(/c1ccc(/C=C/C(=O)O)cc1)c1ccc2[nH]ncc2c1)c1ccc(F)cc1C#N` [Compound 138, (E)-3-(4-((E)-2-(2-Cyano-4-fluorophenyl)-1-(1H-indazol-5-yl)but-1-en-1-yl)phenyl)acrylic acid], in the experiment on MCF-7 cells, the “MCF7 Viability Assay Max Response” value was “++ (++ = a single % value ≧ 40%)” and the IC50 was at most 100 nM. On ER-α, the Emax was at least 40% and the DC50 is at most 100 nM.

In the case of `CC/C(=C(/c1ccc(/C=C/C(=O)O)cc1)c1ccc2[nH]ncc2c1)c1ccccc1CO` [Compound 8, (E)-3-(4-((E)-2-(2-(Hydroxymethyl)phenyl)-1-(1H-indazol-5-yl)but-1-en-1-yl)phenyl)acrylic acid], in the experiment on MCF-7 cells, the “MCF7 Viability Assay Max Response” value is “++ (++ = a single % value ≧ 40%)” and the IC50 is over 100 nM. Moreover, at ER-α, the Emax is at least 40% and the DC50 was at most 100 nM.

As to `CC/C(=C(/c1ccc(/C=C/C(=O)O)cc1)c1ccc2[nH]ncc2c1)c1ccc(C#N)cc1C` [Compound 142, (E)-3-(4-((E)-2-(4-Cyano-2-methylphenyl)-1-(1H-indazol-5-yl)but-1-en-1-yl)phenyl)acrylic acid], in the experiment on MCF-7 cells, the “MCF7 Viability Assay Max Response” value is on record as “++ (++ = a single % value ≧ 40%)” and the IC50 is at most 100 nM. The Emax on ER-α is at least 40%.

As for `CC/C(=C(/c1ccc(/C=C(\F)C(=O)O)cc1)c1ccc2[nH]ncc2c1)c1ccccc1` [Compound 103, (Z)-3-(4-((E)-1-(1H-Indazol-5-yl)-2-phenylbut-1-en-1-yl)phenyl)-2-fluoroacrylic acid], in the experiment on MCF-7 cells, the “MCF7 Viability Assay Max Response” value is “++ (++ = a single % value ≧ 40%)” and the IC50 was over 100 nM. Moreover, on ER-α, the Emax was at least 40% and the DC50 is at most 100 nM.

For the compound `O=C(O)/C=C/c1ccc(/C(=C(/CCF)c2ccc(F)cc2)c2ccc3[nH]ncc3c2)cc1` [Compound 78, (E)-3-(4-((E)-4-Fluoro-2-(4-fluorophenyl)-1-(1H-indazol-5-yl)but-1-en-1-yl)phenyl)acrylic acid], in the experiment on MCF-7 cells, the “MCF7 Viability Assay Max Response” value is given as “++ (++ = a single % value ≧ 40%)” and the IC50 was at most 100 nM. In addition, on ER-α, the Emax was at least 40% and the DC50 was at most 100 nM.

Take `CC/C(=C(/c1ccc(/C=C/C(=O)O)cc1)c1ccc2[nH]ncc2c1)c1ccc(OC)cc1C` [Compound 128, (E)-3-(4-((E)-1-(1H-Indazol-5-yl)-2-(4-methoxy-2-methylphenyl)but-1-en-1-yl)phenyl)acrylic acid]: in the experiment on MCF-7 cells, the “MCF7 Viability Assay Max Response” value is listed as “++ (++ = a single % value ≧ 40%)” and the IC50 is at most 100 nM. At ER-α, the Emax was at least 40% and the DC50 is at most 100 nM.

Consider `CC/C(=C(/c1ccc(/C=C/C(=O)O)cc1)c1ccc2[nH]ncc2c1C)c1ccccc1` [Compound 36, (E)-3-(4-((E)-1-(4-Methyl-1H-indazol-5-yl)-2-phenylbut-1-en-1-yl)phenyl)acrylic acid], for which, in the experiment on MCF-7 cells, the “MCF7 Viability Assay Max Response” value is given as “++ (++ = a single % value ≧ 40%)” and the IC50 was at most 100 nM. Moreover, on ER-α, the Emax was at least 40% and the DC50 is at most 100 nM.

With `CCCCOc1ccc(/C(CC)=C(\c2ccc(/C=C/C(=O)O)cc2)c2ccc3[nH]ncc3c2)cc1` [Compound 97, (E)-3-(4-((E)-2-(4-Butoxyphenyl)-1-(1H-indazol-5-yl)but-1-en-1-yl)phenyl)acrylic acid], in the experiment on MCF-7 cells, the “MCF7 Viability Assay Max Response” value was “++ (++ = a single % value ≧ 40%)” and the IC50 is at most 100 nM. Besides, on ER-α, the Emax is at least 40% and the DC50 is at most 100 nM.

`CC/C(=C(/c1ccc(/C=C/C(=O)O)cc1)c1ccc2[nH]ncc2c1)c1ccc(CO)cc1` [Compound 7, (E)-3-(4-((E)-2-(4-(Hydroxymethyl)phenyl)-1-(1H-indazol-5-yl)but-1-en-1-yl)phenyl)acrylic acid]: in the experiment on MCF-7 cells, the “MCF7 Viability Assay Max Response” value is given as “++ (++ = a single % value ≧ 40%)” and the IC50 was at most 100 nM. On ER-α, the Emax was at least 40% and the DC50 was at most 100 nM.

For `O=C(O)/C=C/c1ccc(/C(=C(/CCF)c2ccccc2)c2ccc3[nH]ncc3c2F)cc1` [Compound 79, (E)-3-(4-((E)-4-Fluoro-1-(4-fluoro-1H-indazol-5-yl)-2-phenylbut-1-en-1-yl)phenyl)acrylic acid], in the experiment on MCF-7 cells, the “MCF7 Viability Assay Max Response” value is reported as “++ (++ = a single % value ≧ 40%)” and the IC50 is at most 100 nM. Besides, on ER-α, the Emax is at least 40% and the DC50 was at most 100 nM.

As to `CC/C(=C(/c1ccc(/C=C/C(=O)O)cc1)c1ccc2[nH]ncc2c1)c1ccc(F)cc1` [Compound 3, (E)-3-(4-((E)-2-(4-Fluorophenyl)-1-(1H-indazol-5-yl)but-1-en-1-yl)phenyl)acrylic acid], in the experiment on MCF-7 cells, the “MCF7 Viability Assay Max Response” value is “++ (++ = a single % value ≧ 40%)” and the IC50 was at most 100 nM. Further, on ER-α, the Emax is at least 40% and the DC50 was at most 100 nM.

As to `O=C(O)/C=C/c1ccc(/C(=C(\c2ccccc2)C2CCC2)c2ccc3[nH]nc(F)c3c2)cc1` [Compound 87, (E)-3-(4-((E)-2-Cyclobutyl-1-(3-fluoro-1H-indazol-5-yl)-2-phenylvinyl)phenyl)acrylic acid], in the experiment on MCF-7 cells, the “MCF7 Viability Assay Max Response” value was “++ (++ = a single % value ≧ 40%)” and the IC50 was at most 100 nM. Also, on ER-α, the Emax was at least 40% and the DC50 is at most 100 nM.

Take `O=C(O)/C=C/c1ccc(/C(=C(/CCCl)c2ccccc2)c2ccc3[nH]ncc3c2)cc1` [Compound 20, (E)-3-(4-((E)-4-Chloro-1-(1H-indazol-5-yl)-2-phenylbut-1-en-1-yl)phenyl)acrylic acid]: in the experiment on MCF-7 cells, the “MCF7 Viability Assay Max Response” value is reported as “++ (++ = a single % value ≧ 40%)” and the IC50 is at most 100 nM. Further, on ER-α, the Emax was at least 40% and the DC50 was at most 100 nM.

For the compound `O=C(O)/C=C/c1ccc(/C(=C(\c2ccccc2)C2CCCC2)c2ccc3[nH]ncc3c2)cc1` [Compound 53, (E)-3-(4-((E)-2-Cyclopentyl-1-(1H-indazol-5-yl)-2-phenylvinyl)phenyl)acrylic acid], in the experiment with MCF-7 cells, the “MCF7 Viability Assay Max Response” value is “++ (++ = a single % value ≧ 40%)” and the IC50 is at most 100 nM. In addition, on ER-α, the Emax is at least 40% and the DC50 is at most 100 nM.

In the case of `CC/C(=C(/c1ccc(/C=C/C(=O)O)cc1)c1ccc2[nH]ncc2c1)c1c(F)cccc1F` [Compound 26, (E)-3-(4-((E)-2-(2,6-Difluorophenyl)-1-(1H-indazol-5-yl)but-1-en-1-yl)phenyl)acrylic acid], in the experiment on MCF-7 cells, the “MCF7 Viability Assay Max Response” value is recorded as “++ (++ = a single % value ≧ 40%)” and the IC50 was at most 100 nM. At ER-α, the Emax is at least 40% and the DC50 was at most 100 nM.

In the case of `CC/C(=C(/c1ccc(/C=C/C(=O)O)cc1)c1ccc2c(cnn2C)c1)c1ccc(F)cc1Cl` [Compound 147, (E)-3-(4-((E)-2-(2-Chloro-4-fluorophenyl)-1-(1-methyl-1H-indazol-5-yl)but-1-en-1-yl)phenyl)acrylic acid], in the experiment on MCF-7 cells, the “MCF7 Viability Assay Max Response” value is listed as “++ (++ = a single % value ≧ 40%)” and the IC50 is at most 100 nM. Further, at ER-α, the Emax was at least 40% and the DC50 was at most 100 nM.

For `CC/C(=C(/c1ccc(/C=C/C(=O)O)cc1)c1ccc2[nH]ncc2c1)c1cccc(OC)c1` [Compound 5, (E)-3-(4-((E)-1-(1H-indazol-5-yl)-2-(3-methoxyphenyl)but-1-en-1-yl)phenyl)acrylic acid], in the experiment with MCF-7 cells, the “MCF7 Viability Assay Max Response” value is reported as “++ (++ = a single % value ≧ 40%)” and the IC50 was at most 100 nM. For the same compound, at ER-α, the Emax was at least 40% and the DC50 is at most 100 nM.

On to `O=C(O)/C=C/c1ccc(/C(=C(\c2ccccc2)C2CCC2)c2ccc3[nH]ncc3c2)cc1` [Compound 84, (E)-3-(4-((E)-2-Cyclobutyl-1-(1H-indazol-5-yl)-2-phenylvinyl)phenyl)acrylic acid], for which, in the experiment on MCF-7 cells, the “MCF7 Viability Assay Max Response” value is reported as “++ (++ = a single % value ≧ 40%)” and the IC50 was at most 100 nM. On ER-α, the Emax is at least 40% and the DC50 is at most 100 nM.

Regarding `CC/C(=C(/c1ccc(/C=C/C(=O)O)cc1)c1ccc2[nH]ncc2c1)c1cccc(F)c1` [Compound 17, (E)-3-(4-((E)-2-(3-Fluorophenyl)-1-(1H-indazol-5-yl)but-1-en-1-yl)phenyl)acrylic acid], in the experiment on MCF-7 cells, the “MCF7 Viability Assay Max Response” value is on record as “++ (++ = a single % value ≧ 40%)” and the IC50 is at most 100 nM. In addition, at ER-α, the Emax is at least 40% and the DC50 was at most 100 nM.

The IC50 is the concentration needed to halve the response being measured.
